We go through two compounds from patent US8404619B2, “Particulate plant treatment composition” (Maruo Calcium Company Limited, priority 2005, dated 2013).

This data set has as its system Welsh onion plant (Sakaiyakko). Kind of data set: reducing leaf blight and improving quality, spray on Welsh onion plant. In kind it is in vivo. The settings on record: for Leaf blight: leaf blight index, 50 plants, sprayed three times; for Phytotoxicity: scale of 1 to 5. Here is the method:
The effects of a quality improver in reducing leaf blight and improving fruit quality were evaluated using a Welsh onion plant (Sakaiyakko).
That is, the quality improver of Example 1 was sprayed on the Welsh onion at the polyvalent metal concentrations shown in Table 7 over three times from early June (one-week interval) using a backpack sprayer.
The evaluation was carried out on 50 randomly selected plants. The leaf blight was determined by evaluating the degree of leaf blight based on a 4-point scale (none=0, mild=1, moderate=2, severe=3), and expressed by the following equation: leaf blight index={(1×the number of plants with mild leaf blight)+(2×the number of plants with moderate leaf blight)+(3×the number of plants with severe leaf blight)}×100/(3× the number of plants examined). In addition, plant length, plant weight, the number of leaves, and yield were evaluated. The dirt on a leaf surface was evaluated by a ratio of the surface area soiled whitish to the total surface area of the leaf on a scale of 1 to 5 (not soiled=1, slightly soiled=2, a little soiled=3, moderately soiled=4, much soiled=5). The phytotoxicity was evaluated on a scale of 1 to 5 (normal=1, slightly damaged=2, a little damaged=3, moderately damaged=4, much damaged=5).
The examinations were carried out in the same manner as in Application Example 43 except that the quality improvers of Examples 2 to 21 and Comparative Examples 1 to 4 were used instead of the quality improver of Example 1.

SMILES strings stand for the structures.

For the setting “polyvalent metal 0.030 wt. %”, `[Ca+2].[Cl-].[Cl-]` [calcium chloride] displayed a Leaf blight of 42.0, a Number of leaves of 30.3, a Plant length of 59.2 and a Plant weight of 185. The compound further came in with a Phytotoxicity (polyvalent metal 0.030 wt. %) of 4. Moreover, under “polyvalent metal 0.075 wt. %”, the Leaf blight is listed as 40.0, the Number of leaves was 31.3, the Plant length is 60.9 and the Plant weight was 189. Besides, the Phytotoxicity (polyvalent metal 0.075 wt. %) amounted to 4.
Where the note is “polyvalent metal 0.030 wt. %”, `O=C[O-].O=C[O-].[Ca+2]` [calcium formate] came in with a Leaf blight of 30.0, a Number of leaves of 34.2, a Plant length of 60.8 and a Plant weight of 185. This compound also yielded a Phytotoxicity (polyvalent metal 0.030 wt. %) of 3. Besides, for the setting “polyvalent metal 0.075 wt. %”, the Leaf blight is given as 28.0, the Number of leaves is 35.6, the Plant length was 62.8 and the Plant weight is recorded as 191. Further, the Phytotoxicity (polyvalent metal 0.075 wt. %) is 3.
